Data as given in PubChem BioAssay AID330 (DTP/NCI, 2004).
Toxic doses and inconclusive results are not listed.

Test system: P388 leukemia ip, CD2F1 mice, survival T/C
Experiment: NCI In Vivo Anticancer Drug Screen. Data for tumor model P388 Leukemia (intraperitoneal) in CD2F1 (CDF1) mice
Settings: endpoint: median survival time, higher = longer survival
How it was run: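 Mice carrying the transplanted tumor received test compound or vehicle. Survival was recorded in each group, and the value is the treated-group measurement divided by that of the vehicle-treated control group.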

[1] = dose: 60.0 mg/kg/injection, schedule: Q01DX005 (ip), vehicle: saline with Tween-80
[2] = dose: 120.0 mg/kg/injection, schedule: Q01DX005 (ip), vehicle: saline with Tween-80
[3] = dose: 240.0 mg/kg/injection, schedule: Q01DX005 (ip), vehicle: saline with Tween-80
[4] = dose: 50.0 mg/kg/injection, schedule: Q01DX009 (ip), vehicle: saline with Tween-80
[5] = dose: 100.0 mg/kg/injection, schedule: Q01DX009 (ip), vehicle: saline with Tween-80
[6] = dose: 200.0 mg/kg/injection, schedule: Q01DX009 (ip), vehicle: saline with Tween-80
[7] = dose: 50.0 mg/kg/injection, schedule: Q01DX005 (ip), vehicle: saline with Tween-80
[8] = dose: 100.0 mg/kg/injection, schedule: Q04DX002 (ip), vehicle: saline with Tween-80

## CS(=O)(=O)N1COC(=O)[C@@H]1c1ccccc1
[1]
  T/C: 100 % of control
[2]
  T/C: 101 % of control
[3]
  T/C: 101 % of control

## CCC#CC(=O)OC
[4]
  T/C: 94 % of control
[5]
  T/C: 103 % of control
[6]
  T/C: 114 % of control

## CCOC(=O)C1=C(C(C)=O)C(c2ccc(OC)c(OC)c2)C(C(C)=O)=C(C(=O)OCC)N1
dose: 60.0 mg/kg/injection, schedule: Q01DX005 (ip), vehicle: saline
  T/C: 102 % of control
dose: 120.0 mg/kg/injection, schedule: Q01DX005 (ip), vehicle: saline
  T/C: 100 % of control

## CCCCCCCCCCCCCCCCCC[N+]1([O-])CCOCC1
dose: 50.0 mg/kg/injection, schedule: Q01DX009 (ip), vehicle: saline
  T/C: 98 % of control
dose: 100.0 mg/kg/injection, schedule: Q01DX009 (ip), vehicle: saline
  T/C: 96 % of control

## CN1C(=O)n2c(nc3ccccc32)C(Cl)(Cl)C1=O
[1]
  T/C: 104 % of control
[2]
  T/C: 98 % of control

## C(#C[P+]1(c2ccccc2)C=C(c2ccccc2)OC(c2ccccc2)=C1)c1ccccc1
dose: 12.5 mg/kg/injection, schedule: Q01DX005 (ip), vehicle: saline with Tween-80
  T/C: 107 % of control
dose: 25.0 mg/kg/injection, schedule: Q01DX005 (ip), vehicle: saline with Tween-80
  T/C: 102 % of control
[7]
  T/C: 107 % of control

## OCc1ccc(Cl)cc1Cl
[4]
  T/C: 104 % of control
[5]
  T/C: 95 % of control
[6]
  T/C: 109 % of control

## NC(=O)c1c(N)nn2c(-c3ccccc3)cc(-c3ccccc3)cc12
dose: 100.0 mg/kg/injection, schedule: Q01DX001 (ip), vehicle: Klucel (hydroxypropylcellulose) (HPC)
  T/C: 86 % of control
dose: 400.0 mg/kg/injection, schedule: Q01DX001 (ip), vehicle: Klucel (hydroxypropylcellulose) (HPC)
  T/C: 94 % of control

## CC1=CN2C(c3cccc([N+](=O)[O-])c3)=NON(c3ccc(C)cn3)C2C=C1 (stereo not drawn)
[1]
  T/C: 87 % of control
[2]
  T/C: 86 % of control
[3]
  T/C: 92 % of control

## C/C(=N\NC(N)=Nc1ccccc1)c1ccc2c(c1)Cc1ccccc1-2
dose: 25.0 mg/kg/injection, schedule: Q04DX002 (ip), vehicle: saline with Tween-80
  T/C: 103 % of control
dose: 50.0 mg/kg/injection, schedule: Q04DX002 (ip), vehicle: saline with Tween-80
  T/C: 94 % of control
[8]
  T/C: 104 % of control

## NCCc1nc(-c2nc(C(=O)Nc3ccccc3)cs2)cs1
dose: 12.5 mg/kg/injection, schedule: Q01DX009 (ip), vehicle: distilled water + Tween-80
  T/C: 100 % of control
dose: 25.0 mg/kg/injection, schedule: Q01DX009 (ip), vehicle: distilled water + Tween-80
  T/C: 103 % of control
dose: 50.0 mg/kg/injection, schedule: Q01DX009 (ip), vehicle: distilled water + Tween-80
  T/C: 103 % of control
dose: 100.0 mg/kg/injection, schedule: Q01DX009 (ip), vehicle: distilled water + Tween-80
  T/C: 100 % of control

## COP(=O)(CS(=O)(=O)Oc1ccc(S(C)(=O)=O)cc1)OC
dose: 3.12 mg/kg/injection, schedule: Q01DX005 (ip), vehicle: Klucel (hydroxypropylcellulose) (HPC)
  T/C: 97 % of control
dose: 6.25 mg/kg/injection, schedule: Q01DX005 (ip), vehicle: Klucel (hydroxypropylcellulose) (HPC)
  T/C: 100 % of control
dose: 12.5 mg/kg/injection, schedule: Q01DX005 (ip), vehicle: Klucel (hydroxypropylcellulose) (HPC)
  T/C: 99 % of control
dose: 25.0 mg/kg/injection, schedule: Q01DX005 (ip), vehicle: Klucel (hydroxypropylcellulose) (HPC)
  T/C: 97 % of control

## Cc1c(Cl)c(C)c(Cl)c(O)c1Cl
dose: 100.0 mg/kg/injection, schedule: Q04DX003 (ip), vehicle: saline with Tween-80
  T/C: 104 % of control
dose: 200.0 mg/kg/injection, schedule: Q04DX003 (ip), vehicle: saline with Tween-80
  T/C: 100 % of control
dose: 400.0 mg/kg/injection, schedule: Q04DX003 (ip), vehicle: saline with Tween-80
  T/C: 104 % of control

## CCCCCCCCCCCCCCCC(=O)OC(=O)CCCCCCCCCCCCCCC
[4]
  T/C: 100 % of control
[5]
  T/C: 95 % of control
[6]
  T/C: 94 % of control

## Cc1ccc2nc(N/N=C(\c3ccccc3)c3ccccn3)cc(C)c2c1
[7]
  T/C: 100 % of control
dose: 100.0 mg/kg/injection, schedule: Q01DX005 (ip), vehicle: saline with Tween-80
  T/C: 112 % of control

## CNc1nc(SC)nc2c1ncn2C1CCCO1 (stereo not drawn)
[8]
  T/C: 98 % of control
dose: 200.0 mg/kg/injection, schedule: Q04DX002 (ip), vehicle: saline with Tween-80
  T/C: 95 % of control
dose: 400.0 mg/kg/injection, schedule: Q04DX002 (ip), vehicle: saline with Tween-80
  T/C: 95 % of control

## O=c1[nH]cc(Br)c2sccc12
dose: 25.0 mg/kg/injection, schedule: Q01DX009 (ip), vehicle: saline with Tween-80
  T/C: 109 % of control
[4]
  T/C: 109 % of control
[5]
  T/C: 109 % of control
